Experimental data taken from ChEMBL document CHEMBL1201862, “PubChem BioAssay data set” (2004).
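Test compounds were applied to cells in 96-well plates for 48 hours at 5 doses. GI50: concentration for 50% inhibition of growth.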 Active and inactive are the calls of the source. No stated cut-off is given here; in the data, active = GI50 up to about 1.1 µM and inactive = higher.

Key:
Assay in all cases: NCI-60 cell line screen, 48 h
A498 = test system: A498
BT-549 = test system: BT-549
EKVX = test system: EKVX
HCC 2998 = test system: HCC 2998
HCT-116 = test system: HCT-116
HCT-15 = test system: HCT-15
HT-29 = test system: HT-29
K562 = test system: K562
MDA-MB-435 = test system: MDA-MB-435
MDA-N = test system: MDA-N
Malme-3M = test system: Malme-3M
NCI-H522 = test system: NCI-H522
OVCAR-3 = test system: OVCAR-3
OVCAR-5 = test system: OVCAR-5
SK-OV-3 = test system: SK-OV-3
SNB-75 = test system: SNB-75
SW-620 = test system: SW-620
U-251 = test system: U-251
UACC-62 = test system: UACC-62

SMILES | GI50 (A498) | GI50 (BT-549) | GI50 (EKVX) | GI50 (HCC 2998) | GI50 (HCT-116) | GI50 (HCT-15) [µM] | GI50 (HT-29) | GI50 (K562) | GI50 (MDA-MB-435) | GI50 (MDA-N) | GI50 (Malme-3M) | GI50 (NCI-H522) | GI50 (OVCAR-3) | GI50 (OVCAR-5) | GI50 (SK-OV-3) | GI50 (SNB-75) | GI50 (SW-620) | GI50 (U-251) | GI50 (UACC-62)
COc1ccc2c3c1OC1C(=O)C=CC4(O)C(C2)NCC[C@@]314 (some centres undefined) | 3.29 µM (inactive) | 1.95 µM (inactive) | 2.3 µM (inactive) | 2.1 µM (inactive) | 1.73 µM (inactive) | 2.11 | 2.54 µM (inactive) | 2.51 µM (inactive) | 1.4 µM (inactive) | 1.26 µM (inactive) | 0.964 µM (active) | 0.556 µM (active) | 1.52 µM (inactive) | 2.46 µM (inactive) | 3.18 µM (inactive) | 1.25 µM (inactive) | 1.11 µM (active) | 2.13 µM (inactive) | 3.44 µM (inactive)
CC1(C)C2C=C(CCN3CCOCC3)CC1C2 (centres undefined) | > 100 µM (inactive) | > 100 µM (inactive) | > 100 µM (inactive) | > 100 µM (inactive) | > 100 µM (inactive) | > 100 | > 100 µM (inactive) | > 100 µM (inactive) | > 100 µM (inactive) | > 100 µM (inactive) | > 100 µM (inactive) | > 100 µM (inactive) | > 100 µM (inactive) | > 100 µM (inactive) | > 100 µM (inactive) | 71.3 µM (inactive) | > 100 µM (inactive) | > 100 µM (inactive) | > 100 µM (inactive)
O=C1CC(c2ccco2)C2(C(=O)NC(=O)NC2=O)C(c2ccco2)C1 (centres undefined) | > 75 µM (inactive) | > 75 µM (inactive) | > 75 µM (inactive) | > 75 µM (inactive) | > 75 µM (inactive) | > 75 | > 75 µM (inactive) | > 75 µM (inactive) | > 75 µM (inactive) | > 75 µM (inactive) | > 75 µM (inactive) | > 75 µM (inactive) | > 75 µM (inactive) | > 75 µM (inactive) | > 75 µM (inactive) | > 75 µM (inactive) | > 75 µM (inactive) | > 75 µM (inactive) | > 75 µM (inactive)
CCCCc1c(C(=O)OC(C)(C)C)cc(C#Cc2cc(C(=O)OC(C)(C)C)c(CCCC)c(C(=O)OC(C)(C)C)c2)cc1C(=O)OC(C)(C)C | > 100 µM (inactive) | > 100 µM (inactive) | > 100 µM (inactive) | > 100 µM (inactive) | > 100 µM (inactive) | > 100 |  |  | > 100 µM (inactive) | > 100 µM (inactive) | > 100 µM (inactive) | > 100 µM (inactive) | > 100 µM (inactive) | > 100 µM (inactive) | > 100 µM (inactive) | > 100 µM (inactive) |  | > 100 µM (inactive) | > 100 µM (inactive)
Cc1ccc(C)c(COCCOCn2cc(Br)c(N)nc2=O)c1 | > 100 µM (inactive) | > 100 µM (inactive) | > 100 µM (inactive) | > 100 µM (inactive) | > 100 µM (inactive) | > 100 |  | > 100 µM (inactive) | > 100 µM (inactive) | > 100 µM (inactive) | > 100 µM (inactive) | > 100 µM (inactive) | > 100 µM (inactive) | > 100 µM (inactive) | > 100 µM (inactive) | > 100 µM (inactive) | > 100 µM (inactive) | > 100 µM (inactive) | > 100 µM (inactive)
O=C(O)CCNC(=O)c1cc(N(CCBr)CCBr)c([N+](=O)[O-])cc1[N+](=O)[O-] | > 100 µM (inactive) | > 100 µM (inactive) | > 100 µM (inactive) | > 100 µM (inactive) | > 100 µM (inactive) | > 100 | > 100 µM (inactive) | > 100 µM (inactive) | > 100 µM (inactive) | > 100 µM (inactive) | > 100 µM (inactive) | > 100 µM (inactive) | > 100 µM (inactive) | > 100 µM (inactive) | > 100 µM (inactive) | > 100 µM (inactive) | > 100 µM (inactive) | > 100 µM (inactive) | 
O=C(c1ccccc1)N1N=C(C(F)(F)F)CC1(O)C(F)(F)F (centres undefined) | > 100 µM (inactive) | > 100 µM (inactive) | > 100 µM (inactive) | > 100 µM (inactive) | > 100 µM (inactive) | > 100 | > 100 µM (inactive) | > 100 µM (inactive) | > 100 µM (inactive) | > 100 µM (inactive) | > 100 µM (inactive) | > 100 µM (inactive) | > 100 µM (inactive) | > 100 µM (inactive) |  | > 100 µM (inactive) | > 100 µM (inactive) | > 100 µM (inactive) | 
O=C(Nc1ccc(Cl)c(Cl)c1)C(=O)C(C1OC(=O)c2ccccc21)[N+](=O)[O-] (centres undefined) | > 100 µM (inactive) | > 100 µM (inactive) | > 100 µM (inactive) | > 100 µM (inactive) | > 100 µM (inactive) | > 100 | > 100 µM (inactive) |  | > 100 µM (inactive) | > 100 µM (inactive) | > 100 µM (inactive) | > 100 µM (inactive) | > 100 µM (inactive) | > 100 µM (inactive) | > 100 µM (inactive) | > 100 µM (inactive) | > 100 µM (inactive) | > 100 µM (inactive) | > 100 µM (inactive)
